# Data: patent US20100310679A1, “NOVEL COMPOSITIONS FOR CONTROL OF MALICIOUS MARINE ANEMONES” (priority 2008, published 2010)
# How the values were obtained:
# [1] = tested on: sea anemone Anthopleura midorii; conditions: added to artificial food; cited from earlier work
# marine pest anemone = assay: Empirically determined effective concentration ranges of ingredients in agar-anemonescide-desensitizer preparation; type: in vivo; conditions: concentration of the ingredient in the agar-anemonescide-desensitizer preparation
# Text: Table 1 also lists the empirically determined effective concentration ranges of the various ingredients. While it is believed that less than the minimal effective concentrations might impair the effectiveness of that ingredient, and more than effective concentration will not further improve the effectiveness, it is to be understood that the table is provided by way of enablement and is not to be construed as limiting the invention to the preferred ranges.
Structure (SMILES),effect on feeding motions [1],Empirically Determined Effective Concentration range (Min-Max) (marine pest anemone)
O=C(O)[C@@H]1CCCN1 [proline],evoked mouth opening,
"O=S(=O)([O-])[O-].[Ca+2] [CaSO4, calcium sulphate]",,5 to 150 g/L
NCC(=O)O [glycine],stimulated the retention of artificial food by tentacles,
"N[C@@H](CCC(=O)N[C@@H](CS)C(=O)NCC(=O)O)C(=O)O [reduced glutathione (GSH), reduced glutathione]",induced food ingestion,
N[C@@H](CS)C(=O)O [Cysteine],induced food ingestion,
C[C@H](N)C(=O)O [alanine],stimulated the retention of artificial food by tentacles,
NC(=O)C[C@H](N)C(=O)O [asparagine],stimulated the retention of artificial food by tentacles,
"[Na+].[OH-] [NaOH, sodium hydroxide]",,5 to 120 g/L
N[C@@H](Cc1c[nH]cn1)C(=O)O [histidine],stimulated the retention of artificial food by tentacles,
"O=S(=O)([O-])[O-].[Mg+2] [MgSO4, magnesium sulphate]",,0.5 to 10 g/L
O.O.[Ca+2].[Cl-].[Cl-] [CaCl2•2H2O],,10-500 g/l
